One experiment has as its system OT1 splenocytes. The experiment can be described thus: Metabolomics, acetyl-CoA and 13C tracing by mass spectrometry. The class given is cell-based, mouse. An excerpt:
Mechanistically, it was hypothesized by the inventors that epigenetic processes might underlie the observed long-term memory phenotype and anti-tumor activity upon metabolic intervention with MPCi. […] Since acetyl-CoA is the acetyl donor for the acetylation of proteins, amongst which also histones, histone post-translational modifications were examined that are known to make chromatin accessible to transcription factors, a characteristic of memory T cells. […] These are marks known to open chromatin and make it accessible for transcription factor docking. […] Amongst those were Sell, Tcf7 and Ccr7, thereby correlating accessible chromatin with increased mRNA copies (FIG. 3E and see above).
OT1 splenocytes were activated and cultured as described above. After 66 hours, the cells were collected and the medium was replaced with glucose- and glutamine-free RPMI, supplemented with 10% dialyzed FBS, 1% P/S, 10 mM HEPES, 50 μM β-mercaptoethanol and either 11 mM normal glucose or 11 mM U-^13C6-glucose (Cambridge Isotopes) with respectively 4 mM ^13C5-glutamine (Cambridge Isotopes or 4 mM normal L-glutamine. After 6 hours labelling at 37° C., cells were collected and lysed in Methanol. Next Chloroform was added, and after centrifugation, the fraction containing the polar metabolites was collected and dried on a SpeedVac. Samples were then resuspended and loaded on a mass spectrometer. The spectra of AcetylCoA were analyzed with the M+0 representing the unlabeled fraction, and the M+2 representing the Acetyl group derived from the ^13C-labelled substrate (glucose or glutamine).

Experiment [1] deals with transferred OT1 CD8 T cells; ovalbumine-expressing B16 melanoma. Nature of the experiment: Vaccination model with UK5099 as vaccine adjuvant, then B16 melanoma challenge. Type of experiment: in vivo, mouse. As to conditions: vs DMSO; for control of B16 tumor growth after challenge: 0.5 mg s.c. at d0 and d2, B16 challenge 40 days post-vaccination, tumor growth and weight. An excerpt: One of the main goals of preventive and therapeutic vaccination in the context of pathogen infection and cancer is the establishment of a potent memory CD8 T cell pool. Since it was observed that MPC inhibition during in vitro priming of antigen-specific CD8 T cells increases their memory formation, it was investigated whether the MPCi could be used as a vaccine adjuvant. 10^5 naïve OT1 CD8 T cells were […] in healthy mice and the mice were subsequently vaccinated by a subcutaneous injection of 50 μg CpG and 10 μg SIINFEKL containing additionally 0.5 mg UK5099 or and equal volume of DMSO as control. 48 hours later, the mice received another subcutaneous injection of 0.5 mg UK5099 or and equal volume of DMSO (FIG. 4A). […] It was investigated whether this would render them better prepared for a subsequent antigen challenge, and injected 10^5 ovalbumine-expressing B16 melanoma cells s.c. in the flank of the mice at 40 days post-vaccination (FIG. 4A).
Naïve CD8 T cells were isolated from OT1 spleens (negative selection, Stem Cell Technologies). 1×10^5 T cells were i.v. transferred in WT C57BL/6 mice, followed by a subcutaneous injection of the vaccine, consisting of 10 μg SIINFEKL peptide, 50 μg CpG and 0.5 mg UK5099 or DMSO diluted in a total of 100 μl PBS per mouse. 2 days post-vaccination, mice received a second dose of s.c. 0.5 mg UK5099 or DMSO. After 2 weeks, blood was collected from the tail vein and analyzed by flow cytometry. 40 days post-vaccination, mice were challenged by an s.c. injection of 1×10^5 SIINFEKL-expressing B16 melanoma cells. 17 days later, mice were sacrificed and the tumor was dissected.

In another experiment the test system is adult human CD8 T cells. Nature of the experiment: Adult human PBMC activation with anti-CD3/CD28 beads, T cell phenotype by flow cytometry. The class given is cell-based. The conditions noted are these: adult PBMCs, day 9, vs DMSO. On the procedure: FIG. 7: MPC inhibition during the activation and culture of adult human T cells induces a memory phenotype. (A) Experimental design. PBMCs were isolated from adult healthy volunteers and activated with anti-CD3/CD28 beads in the presence of DMSO or UK5099 (25 μM). Beads were removed at day 5 and T cell phenotype was analysed at day 9. (B) Percentage of CD8 T cells expressing the memory marker CD62L. (C) The mean fluorescent intensity of CD62L in the respective positive population. (D) Percentage of CD8 T cells expressing markers that allows their identification as stem cell memory T cells (TSCM). (E-F) Mitochonrial mass (identified by MitoGreen staining, E) and mitochondrial membrane potential (TMRM, F), measured by flow cytometry and expressed as fold change as compared to DMSO. (G) Mitochondrial membrane potential normalized for the mitochondrial mass, expressed as the ratio of […], fold change as compared to DMSO. Pooled data from 2 independant experiments. ns: non-significant, *p<0.05, **[…], ***p<0.001. Data represents mean±s.e.m.
Heparinised blood was diluted with PBS and pipetted on top of Ficoll-paque (LymphoPrep). After centrifugation at 1800 rpm for 20 minutes at room temperature, the layer of cells at the intersection, containing the PBMCs was removed, washed and resuspended at 5×10^5 cells/ml of RPMI medium containing 8% human serum (AB serum), antibiotics, 2 mM L-Glutamine, 1% non-essential amino acids, 1 mM sodium pyruvate and 50 μM β-mercaptoethanol (all Gibco). Cells were activated with Human T-activator CD3/CD28 Dynabeads at a 1 bead/cell ratio with 150 IU/ml human recombinant IL2 and DMSO or 25 μM UK5099. Throughout the culture, cells were regularly split when necessary and beads were removed at day 5. At day 9, a fraction of the cells was stained with antibodies for flow cytometry analysis or for mitochondrial analysis.
In general terms: Flow cytometry measures light scatter and fluorescence of single cells or particles in a stream.

Entries after “also recorded” stand apart in the source; their conditions may differ.

As to `N#CC(=Cc1cn(-c2ccccc2)c2ccccc12)C(=O)O` [UK5099, 2-cyano-3-(1-phenyl-1H-indol-3-yl)-2-propenoic acid], in the experiment with OT1 splenocytes (6 hours labelling), the “13C-glutamine incorporation into acetyl-CoA” value was “incorporated dramatically more” and the “13C-labeled glucose incorporation into acetyl-CoA” value is given as “incorporating less”. Further, the “total acetyl-CoA levels” value in the experiment with OT1 splenocytes (mass spectrometry, vs DMSO) is on record as “strong increase”. The “control of B16 tumor growth after challenge” value in experiment [1] was “protects against tumor growth”. The “control of B16 tumor growth after challenge” value in experiment [1] (listed as MPCi) is “much better in controlling the tumor growth”. In addition, the “proportion of transferred OT1 CD8 T cells that formed memory precursor cells” value in experiment [1] (0.5 mg s.c. at d0 and d2 with CpG and SIINFEKL, blood 14 days after vaccination) is recorded as “drives a memory phenotype; also recorded: increased proportion”. In the experiment on adult human CD8 T cells (25 μM), the “population of stem cell-like memory T cells (TSCM)” value is “increased”. For the same compound, the “population of CD8 T cells positive for CD62L” value with adult human CD8 T cells (UK5099 25 μM) was “further induce”. Further, the “mean fluorescent intensity of the CD62L signal in the CD62L-positive cells” value with adult human CD8 T cells was “increased”.

Source of the values: patent publication US20230302131A1, “MPC INHIBITION FOR PRODUCING T-CELLS WITH A MEMORY PHENOTYPE” (UNIVERSITÉ DE LAUSANNE, priority 2020, published 2023).
